In ChEMBL document CHEMBL6109042, “Metabologenomics-Driven Discovery of Nocardimicins from a Psychrophilic Nocardia sp. Strain” (J Nat Prod, 2025):

Test system: HeLa
Experiment: Cytotoxicity against human HeLa cells
Assay type: functional, cell-based

| SMILES | IC50 |
| --- | --- |
| CCCCCCCCCCCCC/C=C\CCC(OC(=O)[C@H](CCCCN(O)C=O)NC(=O)[C@H]1N=C(c2ccccc2O)O[C@@H]1C)C(C)C(=O)N[C@@H]1CCCCN(O)C1=O (stereo partly drawn) | 16.7 µM |
| CCCCCCCCCCCCCCCCCC(OC(=O)[C@H](CCCCN(O)C=O)NC(=O)[C@H]1N=C(c2ccccc2O)O[C@@H]1C)C(C)C(=O)N[C@@H]1CCCCN(O)C1=O (stereo partly drawn) | 16.7 µM |
| CCCCCCCCCCCCCCCC(OC(=O)[C@H](CCCCN(O)C=O)NC(=O)[C@H]1N=C(c2ccccc2O)O[C@@H]1C)C(C)C(=O)N[C@@H]1CCCCN(O)C1=O (stereo partly drawn) | 16.7 µM |
